ChEMBL document CHEMBL5154670, “Discovery of selective irreversible inhibitors of B-Lymphoid tyrosine kinase (BLK)” (Eur J Med Chem, 2022)
Values belong to the compound of their own block, whether it stands above or below them. Calls of active or inactive are those of the source. The rule behind the calls is not given here.

Tests used:
[1] = molecular target: T1, Tyrosine-protein kinase BTK (Homo sapiens, UniProt Q06187); assay: Inhibition of wild type N-terminal GST tagged BTK (unknown origin) (2 to 659 residues) expressed in sf21 insect cell using TK as substrate incubated for 50 mins in presence of ATP by HTRF assay
T1 sequence (Q06187 whole entry, the tested form may be a part): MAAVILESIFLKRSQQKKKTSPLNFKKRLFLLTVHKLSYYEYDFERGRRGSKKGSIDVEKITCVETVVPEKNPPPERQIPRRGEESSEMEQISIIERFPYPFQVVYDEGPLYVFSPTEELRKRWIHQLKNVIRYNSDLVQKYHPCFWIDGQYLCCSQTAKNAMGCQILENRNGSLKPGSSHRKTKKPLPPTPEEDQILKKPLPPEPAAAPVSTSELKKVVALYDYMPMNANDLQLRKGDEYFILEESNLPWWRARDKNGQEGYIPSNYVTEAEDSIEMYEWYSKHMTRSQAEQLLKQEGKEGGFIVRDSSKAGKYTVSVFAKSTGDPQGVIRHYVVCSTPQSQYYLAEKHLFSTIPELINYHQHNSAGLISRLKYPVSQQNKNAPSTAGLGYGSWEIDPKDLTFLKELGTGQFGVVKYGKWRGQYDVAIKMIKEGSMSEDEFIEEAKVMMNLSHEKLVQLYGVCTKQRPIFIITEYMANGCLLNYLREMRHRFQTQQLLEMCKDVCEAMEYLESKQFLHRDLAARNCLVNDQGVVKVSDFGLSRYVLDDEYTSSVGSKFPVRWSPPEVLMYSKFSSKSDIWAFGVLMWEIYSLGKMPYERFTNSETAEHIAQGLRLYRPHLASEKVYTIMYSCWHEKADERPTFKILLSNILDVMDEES

[2] = molecular target: Mitogen-activated protein kinase 14 (Homo sapiens) (UniProt Q16539); assay: Inhibition of p38alpha (unknown origin) relative to control; conditions: concentration not given here
[3] = molecular target: T2, Tyrosine-protein kinase Blk (Homo sapiens, UniProt P51451); assay: Inhibition of wild type N-terminal GST tagged BLK (unknown origin) (1 to 505 residues) expressed in sf21 insect cell using TK as substrate incubated for 50 mins in presence of ATP by HTRF assay
Target sequence in this assay (P51451 whole entry, the tested form may be a part): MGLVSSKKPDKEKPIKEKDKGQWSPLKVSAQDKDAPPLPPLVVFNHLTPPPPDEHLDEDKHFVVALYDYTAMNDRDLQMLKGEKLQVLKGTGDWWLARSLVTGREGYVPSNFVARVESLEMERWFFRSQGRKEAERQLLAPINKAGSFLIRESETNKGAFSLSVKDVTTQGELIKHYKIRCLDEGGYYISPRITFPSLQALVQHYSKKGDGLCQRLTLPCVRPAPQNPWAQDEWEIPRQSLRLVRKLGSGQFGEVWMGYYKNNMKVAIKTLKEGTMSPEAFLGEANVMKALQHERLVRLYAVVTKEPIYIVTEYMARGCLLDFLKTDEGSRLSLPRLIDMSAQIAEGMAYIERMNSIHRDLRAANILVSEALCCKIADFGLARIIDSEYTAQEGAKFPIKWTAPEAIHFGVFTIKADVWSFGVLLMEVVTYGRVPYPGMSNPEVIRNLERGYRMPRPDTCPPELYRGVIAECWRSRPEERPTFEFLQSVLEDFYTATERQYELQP

[4] = molecular target: Tyrosine-protein kinase Lyn (Homo sapiens) (UniProt P07948); assay: Inhibition of LYN (unknown origin) relative to control; conditions: concentration not given here
Chain of Tyrosine-protein kinase Lyn (Homo sapiens) (P07948 2-512 limits assumed): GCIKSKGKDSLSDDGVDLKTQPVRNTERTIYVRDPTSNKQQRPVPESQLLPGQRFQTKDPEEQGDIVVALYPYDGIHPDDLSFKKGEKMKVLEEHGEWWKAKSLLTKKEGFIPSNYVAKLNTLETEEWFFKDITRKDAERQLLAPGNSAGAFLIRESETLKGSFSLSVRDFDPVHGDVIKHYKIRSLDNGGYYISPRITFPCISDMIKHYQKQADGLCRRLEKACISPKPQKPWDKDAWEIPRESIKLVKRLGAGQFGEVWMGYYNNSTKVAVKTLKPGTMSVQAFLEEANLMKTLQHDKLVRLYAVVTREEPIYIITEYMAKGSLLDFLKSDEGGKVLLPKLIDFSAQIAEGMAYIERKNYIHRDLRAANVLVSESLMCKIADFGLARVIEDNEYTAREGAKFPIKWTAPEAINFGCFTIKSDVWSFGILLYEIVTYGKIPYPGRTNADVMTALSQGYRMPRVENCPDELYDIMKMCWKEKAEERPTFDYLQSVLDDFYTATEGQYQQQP

[5] = molecular target: Tyrosine-protein kinase CSK (Homo sapiens) (UniProt P41240); assay: Inhibition of CSK (unknown origin) relative to control; conditions: concentration not given here
[6] = molecular target: T2, Tyrosine-protein kinase Blk; assay: (§1) Inhibition of (S)-3-(3-(5-acrylamido-6-(3-(5-(2-methyl-5-(3-(trifluoromethyl)benzamido)benzamido)pyrimidin-2-ylamino)phenylamino)-6-oxohexylamino)-3-oxopropyl)-5,5-difluoro-7,9-dimethyl-5H-dipyrrolo[1,2-c:1',2'-f][1,3,2]diazaborinin-4-ium-5-uide binding to BLK in human NAMALVA cells preincubated for 1 hr followed by compound washout for three times and treated with probe for 1 hr by competitive labeling assay; format: cell-based
Target sequence in this assay (P51451 whole entry, the tested form may be a part): as the sequence (P51451 whole entry, the tested form may be a part) above

[7] = organism: Homo sapiens; assay: Selectivity ratio, ratio of IC50 for inhibition of BTK (unknown origin) to IC50 for inhibition of BLK (unknown origin)
[8] = molecular target: T1, Tyrosine-protein kinase BTK; assay: Time dependent inhibition of wild type N-terminal GST tagged BTK (unknown origin) (2 to 659 residues) expressed in sf21 insect cell using TK as substrate in presence of ATP by HTRF assay; conditions: time 50.0 min, TDE = time-dependent effect
[9] = molecular target: T1, Tyrosine-protein kinase BTK; assay: as §1, with “BTK” for “BLK”; format: cell-based
[10] = molecular target: T2, Tyrosine-protein kinase Blk; assay: as §1, with “to wild type” for “to”, “BLK over expressed” for “BLK”, “HEK293” for “human NAMALVA”; format: cell-based
Target sequence in this assay (P51451 2-505 limits assumed): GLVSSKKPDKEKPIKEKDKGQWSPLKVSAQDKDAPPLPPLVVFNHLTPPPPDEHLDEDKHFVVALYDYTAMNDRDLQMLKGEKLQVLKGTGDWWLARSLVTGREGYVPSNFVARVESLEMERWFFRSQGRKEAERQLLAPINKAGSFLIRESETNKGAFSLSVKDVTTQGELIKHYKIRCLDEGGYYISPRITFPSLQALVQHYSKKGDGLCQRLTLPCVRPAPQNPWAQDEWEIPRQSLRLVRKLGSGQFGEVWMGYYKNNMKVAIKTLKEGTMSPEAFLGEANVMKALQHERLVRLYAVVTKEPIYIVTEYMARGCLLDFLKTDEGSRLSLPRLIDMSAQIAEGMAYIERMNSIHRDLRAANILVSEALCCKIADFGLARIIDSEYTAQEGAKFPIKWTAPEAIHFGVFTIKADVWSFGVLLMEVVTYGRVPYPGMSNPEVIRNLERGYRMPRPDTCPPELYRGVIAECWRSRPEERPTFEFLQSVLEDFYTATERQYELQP

[11] = test system: HEK293; assay: as §1, with “BLK C319A mutant over expressed” for “BLK”, “HEK293” for “human NAMALVA”; format: cell-based; conditions: Homo sapiens
[12] = test system: SU-DHL-6; assay: Downregulation of CDK2 expression in human SU-DHL-6 cells at 0.3 uM incubated for 24 hrs by Western blot analysis; format: functional, cell-based
[13] = test system: A-375; assay: Antiproliferative activity against human A-375 cells assessed as cell growth inhibition incubated for 72 hrs by celltiter-glo luminescent cell viability assay; format: functional
[14] = molecular target: T2, Tyrosine-protein kinase Blk; assay: Irreversible inhibition of wild type N-terminal GST tagged BLK (unknown origin) (1 to 505 residues) expressed in sf21 insect cell at 3 uM incubated for 4 hrs and measured after 48 hrs dialysis
Target sequence in this assay (P51451 2-505 limits assumed): as above

[15] = Downregulation of CDK2 expression in human SU-DHL-6 cells at 0.3 uM preincubated for 1 hr followed by compound washout for 11 hrs and further incubated for 1 hr with compound followed by second washout for 11hrs by Western blot analysis; format: functional; conditions: time 2 hrs
[16] = molecular target: Tyrosine-protein kinase Tec (Homo sapiens) (UniProt P42680); assay: Inhibition of TEC (unknown origin) at 0.3 uM relative to control
[17] = molecular target: Tyrosine-protein kinase TXK (Homo sapiens) (UniProt P42681); assay: Inhibition of TXK (unknown origin) at 0.3 uM relative to control
[18] = test system: DOHH-2; assay: Downregulation of CDK2 expression in human DOHH-2 cells at 0.1 to 0.3 uM incubated for 24 hrs by Western blot analysis; format: functional, cell-based; conditions: dose 0.1-0.3 µM
[19] = molecular target: T1, Tyrosine-protein kinase BTK; assay: Inhibition of BTK in goat anti-human IgM antibody stimulated human Ramos cells assessed as PLCgamma2 phosphorylation preincubated for 1 hr followed by antibody stimulation by Western blot analysis; format: cell-based
[20] = test system: TMD8; assay: Antiproliferative activity against human TMD8 cells assessed as cell growth inhibition incubated for 72 hrs by celltiter-glo luminescent cell viability assay; format: functional
[21] = test system: SU-DHL-6; assay: Downregulation of CDK2 expression in human SU-DHL-6 cells at 0.1 to 0.3 uM incubated for 24 hrs by Western blot analysis; format: functional, cell-based; conditions: dose 0.1-0.3 µM
[22] = molecular target: Epidermal growth factor receptor (Homo sapiens) (UniProt P00533); assay: Inhibition of EGFR (unknown origin) at 0.3 uM relative to control
Chain of Epidermal growth factor receptor (Homo sapiens) (P00533 whole entry): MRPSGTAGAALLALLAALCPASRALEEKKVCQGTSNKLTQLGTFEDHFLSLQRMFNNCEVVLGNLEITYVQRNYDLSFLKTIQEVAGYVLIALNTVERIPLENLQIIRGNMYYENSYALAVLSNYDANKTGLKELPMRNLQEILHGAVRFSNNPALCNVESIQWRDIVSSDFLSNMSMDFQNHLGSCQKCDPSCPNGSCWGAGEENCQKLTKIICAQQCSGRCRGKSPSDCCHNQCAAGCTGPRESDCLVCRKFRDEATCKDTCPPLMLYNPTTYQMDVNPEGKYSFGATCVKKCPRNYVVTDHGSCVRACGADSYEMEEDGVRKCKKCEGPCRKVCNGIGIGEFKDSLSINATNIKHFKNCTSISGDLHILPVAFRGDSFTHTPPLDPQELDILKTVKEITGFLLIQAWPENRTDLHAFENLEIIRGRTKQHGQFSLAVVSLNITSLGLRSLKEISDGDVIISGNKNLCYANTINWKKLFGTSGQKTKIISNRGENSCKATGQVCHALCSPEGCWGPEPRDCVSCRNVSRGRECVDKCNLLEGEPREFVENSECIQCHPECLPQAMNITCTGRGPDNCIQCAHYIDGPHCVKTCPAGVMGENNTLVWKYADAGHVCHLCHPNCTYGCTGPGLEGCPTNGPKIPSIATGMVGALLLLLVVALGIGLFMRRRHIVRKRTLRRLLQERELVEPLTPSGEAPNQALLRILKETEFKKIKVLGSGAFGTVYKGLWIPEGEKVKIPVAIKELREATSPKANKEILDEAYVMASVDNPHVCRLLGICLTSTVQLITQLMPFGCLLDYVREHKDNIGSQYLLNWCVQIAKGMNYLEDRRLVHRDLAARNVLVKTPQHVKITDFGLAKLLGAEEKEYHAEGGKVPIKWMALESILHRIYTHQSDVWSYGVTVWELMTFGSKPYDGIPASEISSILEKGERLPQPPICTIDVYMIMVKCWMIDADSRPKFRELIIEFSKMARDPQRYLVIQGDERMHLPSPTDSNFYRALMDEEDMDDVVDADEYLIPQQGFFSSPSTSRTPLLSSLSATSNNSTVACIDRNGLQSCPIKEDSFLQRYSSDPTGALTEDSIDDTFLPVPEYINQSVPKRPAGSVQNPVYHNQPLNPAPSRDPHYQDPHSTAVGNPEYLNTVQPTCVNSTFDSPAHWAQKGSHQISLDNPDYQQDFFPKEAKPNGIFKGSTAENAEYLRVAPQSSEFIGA

[23] = molecular target: Tyrosine-protein kinase ITK/TSK (Homo sapiens) (UniProt Q08881); assay: Inhibition of ITK (unknown origin) at 0.3 uM relative to control
[24] = molecular target: T2, Tyrosine-protein kinase Blk; assay: Inhibition of BLK (unknown origin) at 0.3 uM relative to control
Target sequence in this assay (P51451 2-505 limits assumed): as the sequence (P51451 2-505 limits assumed) above

[25] = test system: A549; assay: Antiproliferative activity against human A549 cells assessed as cell growth inhibition incubated for 72 hrs by celltiter-glo luminescent cell viability assay; format: functional
[26] = molecular target: T1, Tyrosine-protein kinase BTK; assay: Inhibition of BTK (unknown origin) at 0.3 uM relative to control
[27] = test system: SU-DHL10; assay: Antiproliferative activity against human SU-DHL-10 cells assessed as cell growth inhibition incubated for 72 hrs by celltiter-glo luminescent cell viability assay; format: functional
[28] = test system: SU-DHL-6; assay: Antiproliferative activity against human SU-DHL-6 cells assessed as cell growth inhibition incubated for 72 hrs by celltiter-glo luminescent cell viability assay; format: functional
[29] = test system: Pfeiffer; assay: Antiproliferative activity against human Pfeiffer cells assessed as cell growth inhibition incubated for 72 hrs by celltiter-glo luminescent cell viability assay; format: functional
[30] = test system: OCI-Ly7; assay: Antiproliferative activity against human OCILY7 cells assessed as cell growth inhibition incubated for 72 hrs by celltiter-glo luminescent cell viability assay; format: functional
[31] = test system: Jurkat; assay: Antiproliferative activity against human Jurkat cells assessed as cell growth inhibition incubated for 72 hrs by celltiter-glo luminescent cell viability assay; format: functional
[32] = Antiproliferative activity against human HBL1 cells assessed as cell growth inhibition incubated for 72 hrs by celltiter-glo luminescent cell viability assay; format: functional
[33] = test system: DOHH-2; assay: Antiproliferative activity against human DOHH-2 cells assessed as cell growth inhibition incubated for 72 hrs by celltiter-glo luminescent cell viability assay; format: functional
[34] = molecular target: T2, Tyrosine-protein kinase Blk; assay: Inhibition of BLK in goat anti-human IgM antibody stimulated human Ramos cells assessed as BLK autophosphorylation at Tyr 389 residue at 0.3 uM preincubated for 1 hr followed by compound washout for 2 hrs and antibody stimulation by Western blot analysis; format: cell-based
Target sequence in this assay (P51451 2-505 limits assumed): as above

[35] = molecular target: Receptor tyrosine-protein kinase erbB-2 (Homo sapiens) (UniProt P04626); assay: Inhibition of HER2 (unknown origin) at 0.3 uM relative to control
[36] = Antiproliferative activity against human PBMC cells assessed as cell growth inhibition incubated for 72 hrs by celltiter-glo luminescent cell viability assay; format: toxicity, cell-based
[37] = test system: MDA-MB-453; assay: Antiproliferative activity against human MDA-MB-453 cells assessed as cell growth inhibition incubated for 72 hrs by celltiter-glo luminescent cell viability assay; format: functional
[38] = Antiproliferative activity against HEK293 cells assessed as cell growth inhibition incubated for 72 hrs by celltiter-glo luminescent cell viability assay; format: toxicity, cell-based; conditions: human
[39] = molecular target: Cytoplasmic tyrosine-protein kinase BMX (Homo sapiens) (UniProt P51813); assay: Inhibition of BMX (unknown origin) at 0.3 uM relative to control
[40] = test system: HCT-116; assay: Antiproliferative activity against human HCT-116 cells assessed as cell growth inhibition incubated for 72 hrs by celltiter-glo luminescent cell viability assay; format: functional
[41] = test system: A-431; assay: Antiproliferative activity against human A-431 cells assessed as cell growth inhibition incubated for 72 hrs by celltiter-glo luminescent cell viability assay; format: functional
[42] = molecular target: Receptor tyrosine-protein kinase erbB-4 (Homo sapiens) (UniProt Q15303); assay: Inhibition of HER4 (unknown origin) at 0.3 uM relative to control
Chain of Receptor tyrosine-protein kinase erbB-4 (Homo sapiens) (Q15303 whole entry): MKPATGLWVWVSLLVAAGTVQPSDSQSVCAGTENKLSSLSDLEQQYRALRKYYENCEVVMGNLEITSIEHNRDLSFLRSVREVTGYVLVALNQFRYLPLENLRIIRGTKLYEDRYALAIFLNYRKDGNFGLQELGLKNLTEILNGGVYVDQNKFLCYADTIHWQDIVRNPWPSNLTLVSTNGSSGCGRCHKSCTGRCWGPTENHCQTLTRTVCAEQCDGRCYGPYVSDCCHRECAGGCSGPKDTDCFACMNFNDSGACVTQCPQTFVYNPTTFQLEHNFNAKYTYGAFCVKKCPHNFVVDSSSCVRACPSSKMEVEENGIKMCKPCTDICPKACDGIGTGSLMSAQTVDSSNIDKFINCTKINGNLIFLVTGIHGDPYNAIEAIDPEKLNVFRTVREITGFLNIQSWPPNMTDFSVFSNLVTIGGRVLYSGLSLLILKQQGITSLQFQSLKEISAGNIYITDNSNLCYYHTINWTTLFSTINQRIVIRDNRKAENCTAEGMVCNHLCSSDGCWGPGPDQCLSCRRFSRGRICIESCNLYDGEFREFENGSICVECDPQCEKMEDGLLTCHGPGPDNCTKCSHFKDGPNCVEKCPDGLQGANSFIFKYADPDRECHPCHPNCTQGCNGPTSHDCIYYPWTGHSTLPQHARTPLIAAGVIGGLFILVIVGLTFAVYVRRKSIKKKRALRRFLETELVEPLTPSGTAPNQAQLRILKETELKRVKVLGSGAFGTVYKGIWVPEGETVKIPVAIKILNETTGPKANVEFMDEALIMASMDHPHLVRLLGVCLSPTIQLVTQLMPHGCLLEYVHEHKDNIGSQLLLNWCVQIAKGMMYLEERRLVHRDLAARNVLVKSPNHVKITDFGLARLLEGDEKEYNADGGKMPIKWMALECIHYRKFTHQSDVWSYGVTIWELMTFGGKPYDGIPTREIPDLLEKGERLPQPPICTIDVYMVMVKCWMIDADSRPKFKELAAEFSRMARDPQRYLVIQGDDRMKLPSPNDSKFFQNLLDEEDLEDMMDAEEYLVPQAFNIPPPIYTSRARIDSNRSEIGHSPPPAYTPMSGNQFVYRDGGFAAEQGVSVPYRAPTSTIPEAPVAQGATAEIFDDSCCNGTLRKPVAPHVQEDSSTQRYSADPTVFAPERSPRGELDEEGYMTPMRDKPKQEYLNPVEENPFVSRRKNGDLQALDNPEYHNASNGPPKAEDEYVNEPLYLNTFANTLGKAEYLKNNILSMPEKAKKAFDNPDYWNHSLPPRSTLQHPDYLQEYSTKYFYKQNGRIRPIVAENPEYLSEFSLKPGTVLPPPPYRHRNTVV

[43] = test system: MOLT-4; assay: Antiproliferative activity against human MOLT-4 cells assessed as cell growth inhibition incubated for 72 hrs by celltiter-glo luminescent cell viability assay; format: functional
[44] = molecular target: T1, Tyrosine-protein kinase BTK; assay: Inhibition of BTK in goat anti-human IgM antibody stimulated human Ramos cells assessed as BTK autophosphorylation at […] residue preincubated for 1 hr followed by antibody stimulation by Western blot analysis; format: cell-based

Structure (SMILES): Cc1ccc(NC(=O)c2cccc(-c3ccco3)c2)cc1C(=O)Nc1cnc(Nc2cccc(N)c2)nc1
IC50 [1]: 360 nM

Structure (SMILES): Cc1ccc(NC(=O)c2cccc(-c3ccc(F)nc3)c2)cc1C(=O)Nc1cnc(Nc2cccc(N)c2)nc1
IC50 [1]: 507 nM

Structure (SMILES): Cc1ccc(NC(=O)c2ccc3cnccc3c2)cc1C(=O)Nc1cnc(Nc2cccc(N)c2)nc1
IC50 [1]: 407 nM

Structure (SMILES): Cc1ccc(NC(=O)c2ccc3cnccc3c2)cc1C(=O)Nc1cnc(Nc2cccc(NC3CCN(C(=O)CF)CC3)c2)nc1
IC50 [1]: 63.4 nM

Structure (SMILES): Cc1ccc(NC(=O)c2ccc3cc4ccccc4cc3c2)cc1C(=O)Nc1cnc(Nc2cccc(N)c2)nc1
IC50 [1]: 319 nM

Structure (SMILES): Cc1ccc(NC(=O)c2ccc3ncccc3c2)cc1C(=O)Nc1cnc(Nc2cccc(N)c2)nc1
IC50 [1]: 410 nM

Structure (SMILES): Cc1ccc(NC(=O)c2cccc(-c3ccccc3)c2)cc1C(=O)Nc1cnc(Nc2cccc(N)c2)nc1
IC50 [1]: 660 nM

Structure (SMILES): Cc1ccc(NC(=O)c2cccc(-c3ccc(F)cc3)c2)cc1C(=O)Nc1cnc(Nc2cccc(N)c2)nc1
IC50 [1]: 694 nM

Structure (SMILES): Cc1ccc(NC(=O)c2ccc(-c3ccccc3)cc2)cc1C(=O)Nc1cnc(Nc2cccc(N)c2)nc1
IC50 [1]: 255 nM

Structure (SMILES): Cc1ccc(NC(=O)CC23CC4CC(CC(C4)C2)C3)cc1C(=O)Nc1cnc(Nc2cccc(N)c2)nc1
IC50 [1]: 338 nM

Structure (SMILES): Cc1ccc(NC(=O)OCc2ccccc2)cc1C(=O)Nc1cnc(Nc2cccc(N)c2)nc1
IC50 [1]: 444 nM

Structure (SMILES): C=CC(=O)Nc1cccc(Nc2ncc(NC(=O)c3cc(NC(=O)c4cccc(C(F)(F)F)c4)ccc3C)cn2)c1
inhibition [10]: Active | IC50 [3]: 18.8 nM | inhibition [11]: Active | IC50 [6]: 15 nM

Structure (SMILES): C=CC(=O)NCCC(=O)Nc1cccc(Nc2ncc(NC(=O)c3cc(NC(=O)c4ccc5cnccc5c4)ccc3C)cn2)c1
IC50 [1]: 388 nM

Second part, led by results:

inhibition [2]: > 80% | IC50 [3]: 8.8 nM | inhibition [4]: > 80% | inhibition [5]: > 80% | IC50 [6]: 5.5 nM | IC50 [1]: 58 nM | Ratio IC50 [7]: 6.6
Structure (SMILES): C=CC(=O)N1CCC(Nc2cccc(Nc3ncc(NC(=O)c4cc(NC(=O)c5ccc6cnccc6c5)ccc4C)cn3)c2)CC1

IC50 [1]: 212 nM
Structure (SMILES): Cc1ccc(NC(=O)c2ccc3cc(O)ccc3c2)cc1C(=O)Nc1cnc(Nc2cccc(N)c2)nc1

inhibition [8]: Tde | IC50 [9]: 110 nM | IC50 [1]: 56 nM
Structure (SMILES): C=CC(=O)Nc1cccc(Nc2ncc(NC(=O)c3cc(NC(=O)c4ccc5cnccc5c4)ccc3C)cn2)c1

IC50 [1]: 227 nM
Structure (SMILES): Cc1ccc(NC(=O)c2cccc(-c3cccnc3)c2)cc1C(=O)Nc1cnc(Nc2cccc(N)c2)nc1

IC50 [1]: 78.8 nM
Structure (SMILES): Cc1ccc(NC(=O)c2ccc3ccccc3c2)cc1C(=O)Nc1cnc(Nc2cccc(N)c2)nc1

IC50 [1]: 145 nM
Structure (SMILES): Cc1ccc(NC(=O)c2ccc3cc(Br)ccc3c2)cc1C(=O)Nc1cnc(Nc2cccc(N)c2)nc1

IC50 [1]: 63.8 nM
Structure (SMILES): COc1ccc2cc(C(=O)Nc3ccc(C)c(C(=O)Nc4cnc(Nc5cccc(N)c5)nc4)c3)ccc2c1

IC50 [1]: 42.1 nM
Structure (SMILES): Cc1ccc(NC(=O)c2cccc(C(F)(F)F)c2)cc1C(=O)Nc1cnc(Nc2cccc(N)c2)nc1

GI50 [13]: > 30000 nM | inhibition [14]: Active | inhibition [16]: 19% | inhibition [17]: 83% | EC50 [19]: > 1000 nM | inhibition [22]: 97% | IC50 [3]: 5.9 nM | inhibition [23]: 5% | inhibition [24]: 101% | GI50 [25]: > 30000 nM | inhibition [26]: 100% | GI50 [27]: 560 nM | GI50 [28]: 130 nM | GI50 [30]: 20 nM | GI50 [31]: 10900 nM | IC50 [6]: 12 nM | inhibition [34]: Active | inhibition [35]: 19% | IC50 [1]: 202 nM | GI50 [37]: > 30000 nM | inhibition [39]: 99% | GI50 [40]: 8100 nM | GI50 [41]: > 30000 nM | inhibition [42]: 94% | GI50 [43]: 18800 nM | EC50 [44]: > 1000 nM | Ratio IC50 [7]: 34.2
Structure (SMILES): Cc1ccc(NC(=O)c2ccc3cnccc3c2)cc1C(=O)Nc1cnc(Nc2cccc(NC3CCN(C(=O)/C=C/CN(C)C)CC3)c2)nc1
Activity [12]: Active | Activity [15]: 55% | Activity [18]: Active | GI50 [20]: 64 nM | Activity [21]: Active | GI50 [29]: 2180 nM | GI50 [32]: 1340 nM | GI50 [33]: 16 nM | GI50 at 72 h [36]: > 30000 nM | GI50 at 72 h [38]: > 30000 nM
